Measurements reported in ChEMBL document CHEMBL1126166, “Synthesis of the -phosphonic acid analogue of kainic acid” (Bioorg Med Chem Lett, 1992).

Target: Glutamate receptor ionotropic, kainate (Rattus norvegicus) (UniProt P22756+Q01812+P42260+P42264+Q63273)
Assay: Compound was evaluated for the inhibition of kainate receptor binding at 10 uM
Assay type: protein-complex assay

`C=C(C)[C@H]1CN[C@H](C(=O)O)[C@H]1CP(=O)(O)O` showed an inhibition of 77%.
